Counter-ions that a name gives are not always drawn.
Structure (SMILES) | melting point
CC(C)n1c(CC[C@@H](O)C[C@@H](O)CC(=O)[O-])c(-c2ccc(F)cc2)c(-c2ccccc2)c1C(=O)Nc1ccccn1.[Na+] [Example 119, (3R,5R)-7-[3-(4-Fluoro-phenyl)-1-isopropyl-4-phenyl-5-(pyridin-2-ylcarbamoyl)-1 H-pyrrol-2-yl]-3,5-dihydroxy-heptanoic Acid Sodium Salt] | 226 to 228 °C (dec.)
CC(C)n1c(/C=C/[C@@H](O)C[C@@H](O)CC(=O)O)c(-c2ccc(F)cc2)c(-c2ccccc2)c1C(=O)Nc1ccc(S(N)(=O)=O)cc1 (as salt: sodium) [Example 5, (3R,5S)-7-[3-(4-Fluoro-phenyl)-1-isopropyl-4-phenyl-5-(4-sulfamoyl-phenylcarbamoyl)-1H-pyrrol-2-yl]-3,5-dihydroxy-hept-6-enoic Acid Sodium Salt] | 255 to 256 °C
CC(C)n1c(CC[C@@H](O)C[C@@H](O)CC(=O)[O-])c(-c2ccc(F)cc2)c(-c2ccc(F)cc2)c1C(=O)Nc1ccccc1O.[Na+] [Example 134, (3R,5R)-7-[3,4-Bis-(4-fluoro-phenyl)-5-(2-hydroxy-phenylcarbamoyl)-1-isopropyl-1H-pyrrol-2-yl]-3,5-dihydroxy-heptanoic Acid Sodium Salt] | 222 to 223 °C
CC(C)n1c(CC[C@@H](O)C[C@@H](O)CC(=O)[O-])c(-c2ccc(F)cc2)c(-c2ccccc2)c1C(=O)NCc1cccc(C#N)c1.[Na+] [Example 146, (3R,5R)-7-[5-(3-Cyano-benzylcarbamoyl)-3-(4-fluoro-phenyl)-1-isopropyl-4-phenyl-1H-pyrrol-2-yl]-3,5-dihydroxy-heptanoic Acid Sodium Salt] | 180 to 182 °C
COc1ccc([C@@H](C)NC(=O)c2c(-c3ccc(F)cc3)c(-c3ccc(F)cc3)c(CC[C@@H](O)C[C@@H](O)CC(=O)[O-])n2C(C)C)cc1.[Na+] [Example 154, (3R,5R)-7-{3,4-Bis-(4-fluoro-phenyl)-1-isopropyl-5-[(R)-1-(4-methoxy-phenyl)-ethylcarbamoyl]-1H-pyrrol-2-yl}-3,5-dihydroxy-heptanoic Acid Sodium Salt] | 225 to 227 °C
CC(C)n1c(/C=C/[C@@H](O)C[C@@H](O)CC(=O)[O-])c(-c2ccc(F)cc2)c(-c2ccc(F)cc2)c1C(=O)Nc1ccccc1OCc1ccccc1.[Na+] [Example 131, (3R,5S)-7-[5-(2-Benzyloxy-phenylcarbamoyl)-3,4-bis-(4-fluoro-phenyl)-1-isopropyl-1H-pyrrol-2-yl]-3,5-dihydroxy-hept-6-enoic Acid Sodium Salt] | 228 to 229 °C
CC(C)n1c(/C=C/[C@@H](O)C[C@@H](O)CC(=O)[O-])c(-c2ccc(F)cc2)c(-c2ccc(F)cc2)c1C(=O)Nc1cccc(OCc2ccccc2)c1.[Na+] [Example 132, (3R,5 S)-7-[5-(3-Benzyloxy-phenylcarbamoyl)-3,4-bis-(4-fluoro-phenyl)-1-isopropyl-1H-pyrrol-2-yl]-3,5-dihydroxy-hept-6-enoic Acid Sodium Salt] | 225 to 227 °C
CC(N)=CC(=O)CNC(=O)c1c(-c2ccccc2)c(-c2ccc(F)cc2)c(CC[C@@H](O)C[C@@H](O)CC(=O)[O-])n1C(C)C.[Na+] [Example 113, (3R,5R)-7-[5-(4-Amino-2-oxo-pent-3-enylcarbamoyl)-3-(4-fluoro-phenyl)-1-isopropyl-4-phenyl-1H-pyrrol-2-yl]-3,5-dihydroxy-heptanoic Acid, Sodium Salt] | 189 to 193 °C
COC(=O)c1cccc(CNC(=O)c2c(-c3ccccc3)c(-c3ccc(F)cc3)c(/C=C/[C@@H](O)C[C@@H](O)CC(=O)[O-])n2C(C)C)c1.[Na+] [Example 151, (3R,5S)-7-[3-(4-Fluoro-phenyl)-1-isopropyl-5-(3-methoxycarbonyl-benzylcarbamoyl)-4-phenyl-1H-pyrrol-2-yl]-3,5-dihydroxy-hept-6-enoic Acid Sodium Salt] | 171 to 174 °C
CNC(=O)c1c(-c2ccccc2)c(-c2ccc(F)cc2)c(CC[C@@H](O)C[C@@H](O)CC(=O)[O-])n1C(C)C.[Na+] [Example 156, (3R,5R)-7-[3-(4-Fluoro-phenyl)-1-isopropyl-5-methylcarbamoyl-4-phenyl-1H-pyrrol-2-yl]-3,5-dihydroxy-heptanoic Acid Sodium Salt] | 238 to 240 °C
CC(C)n1c(CC[C@@H](O)C[C@@H](O)CC(=O)[O-])c(-c2ccc(F)cc2)c(-c2ccccc2)c1C(N)=O.[Na+] [Example 161, (3R,5R)-7-[5-Carbamoyl-3-(4-fluoro-phenyl)-1-isopropyl-4-phenyl-1H-pyrrol-2-yl]-3,5-dihydroxy-heptanoic Acid Sodium Salt] | 212 to 214 °C
CC(C)n1c(CC[C@@H](O)C[C@@H](O)CC(=O)[O-])c(-c2ccc(F)cc2)c(-c2ccccc2)c1C(=O)NCc1ccccc1.[Na+] [Example 114, (3R,5R)-7-[5-Benzylcarbamoyl-3-(4-fluoro-phenyl)-1-isopropyl-4-phenyl-1H-pyrrol-2-yl]-3,5-dihydroxy-heptanoic Acid Sodium Salt] | 186 to 189 °C
CC(C)n1c(/C=C/[C@@H](O)C[C@@H](O)CC(=O)[O-])c(-c2ccc(F)cc2)c(-c2ccccc2)c1C(=O)Nc1cccc(C#N)c1.[Na+] [Example 143, (3R,5S)-7-[5-(3-Cyano-phenylcarbamoyl)-3-(4-fluoro-phenyl)-1-isopropyl-4-phenyl-1H-pyrrol-2-yl]-3,5-dihydroxy-hept-6-enoic Acid Sodium Salt] | 210 to 212 °C
COc1ccc([C@@H](C)NC(=O)c2c(-c3ccc(F)cc3)c(-c3ccc(F)cc3)c(/C=C/[C@@H](O)C[C@@H](O)CC(=O)[O-])n2C(C)C)cc1.[Na+] [Example 155, (3R,5S)-7-{3,4-Bis-(4-fluoro-phenyl)-1-isopropyl-5-[(R)-1-(4-methoxy-phenyl)-ethylcarbamoyl]-1H-pyrrol-2-yl)-3,5-dihydroxy-hept-6-enoic Acid Sodium Salt] | 255 to 257 °C
CC(C)n1c(CC[C@@H](O)C[C@@H](O)CC(=O)[O-])c(-c2ccc(F)cc2)c(-c2ccc(F)cc2)c1C(=O)Nc1ccc(C(=O)N(C)C)cc1.[Na+] [Example 85, (3R,5R)-7-[5-(4-dimethylcarbamoyl-phenylcarbamoyl)-3,4-bis-(4-fluoro-phenyl)-1-isopropyl-1H-pyrrol-yl]-3,5-dihydroxy-heptanoate Sodium Salt] | 220 to 223 °C
CCc1cccc(NC(=O)c2c(-c3ccc(F)cc3)c(-c3ccc(F)cc3)c(CC[C@@H](O)C[C@@H](O)CC(=O)[O-])n2C(C)C)c1.[Na+] [Example 140, (3R,5R)-7-[5-(3-Ethyl-phenylcarbamoyl)-3,4-bis-(4-fluoro-phenyl)-1-isopropyl-1H-pyrrol-2-yl]-3,5-dihydroxy-heptanoic Acid Sodium Salt] | 175 to 177 °C
CC(C)n1c(/C=C/[C@@H](O)C[C@@H](O)CC(=O)[O-])c(-c2ccc(F)cc2)c(-c2ccccc2)c1C(=O)NCc1ccc(C#N)cc1.[Na+] [Example 145, (3R,5S)-7-[5-(4-Cyano-benzylcarbamoyl)-3-(4-fluoro-phenyl)-1-isopropyl-4-phenyl-1H-pyrrol-2-yl]-3,5-dihydroxy-hept-6-enoic Acid Sodium Salt] | 193 to 195 °C
CNC(=O)c1c(-c2ccccc2)c(-c2ccc(F)cc2)c(/C=C/[C@@H](O)C[C@@H](O)CC(=O)[O-])n1C(C)C.[Na+] [Example 157, (3R,5S)-7-[3-(4-Fluoro-phenyl)-1-isopropyl-5-methylcarbamoyl-4-phenyl-1H-pyrrol-2-yl]-3,5-dihydroxy-hept-6-enoic Acid Sodium Salt] | 224 to 226 °C
CC(C)n1c(/C=C/[C@@H](O)C[C@@H](O)CC(=O)O)c(-c2ccc(F)cc2)c(-c2ccccc2)c1C(=O)NCc1ccc(F)cc1 (as salt: sodium) [Example 10, (3R,5S)-7-[5-(4-Fluoro-benzylcarbamoyl)-3-(4-fluoro-phenyl)-1-isopropyl-4-phenyl-1H-pyrrol-2-yl]-3,5-dihydroxy-hept-6-enoic Acid Sodium Salt] | 221 to 223 °C
CC(C)n1c(/C=C/[C@@H](O)C[C@@H](O)CC(=O)[O-])c(-c2ccc(F)cc2)c(-c2ccccc2)c1C(=O)Nc1ccccc1.[Na+] [Example 2, (3R,5S)-7-[3-(4-Fluoro-phenyl)-1-isopropyl-4-phenyl-5-phenylcarbamoyl-1H-pyrrol-2-yl]-3,5-dihydroxy-hept-6-enoic Acid Sodium Salt] | 239 to 241 °C
CC(C)OC(=O)c1ccc(CNC(=O)c2c(-c3ccccc3)c(-c3ccc(F)cc3)c(CC[C@@H](O)C[C@@H](O)CC(=O)[O-])n2C(C)C)cc1.[Na+] [Example 148, (3R,5R)-7-[3-(4-Fluoro-phenyl)-5-(4-isopropoxycarbonyl-benzylcarbamoyl)-1-isopropyl-4-phenyl-1H-pyrrol-2-yl]-3,5-dihydroxy-heptanoic Acid Sodium Salt] | 199 to 201 °C
COc1cccc(CNC(=O)c2c(-c3ccc(F)cc3)c(-c3ccc(F)cc3)c(CC[C@@H](O)C[C@@H](O)CC(=O)[O-])n2C(C)C)c1.[Na+] [Example 110, (3R,5R)-7-[3,4-Bis-(4-fluoro-phenyl)-1-isopropyl-5-(3-methoxy-benzylcarbamoyl)-1H-pyrrol-2-yl]-3,5-dihydroxy-heptanoic Acid, Sodium Salt] | 207 to 209 °C
CC(C)n1c(/C=C/[C@@H](O)C[C@@H](O)CC(=O)[O-])c(-c2ccc(F)cc2)c(-c2ccc(F)cc2)c1C(=O)Nc1cccc(C(=O)N(C)C)c1.[Na+] [Example 68, trans-(3R,5S)-7-[5-(3-dimethylcarbamoyl-phenylcarbamoyl)-3,4-bis-(4-fluoro-phenyl)-1-isopropyl-1H-pyrrol-yl]-3,5-dihydroxy-hept-6-enoate Sodium Salt] | 210 to 214 °C
Cc1c[nH]c(CNC(=O)c2c(-c3ccccc3)c(-c3ccc(F)cc3)c(CC[C@@H](O)C[C@@H](O)CC(=O)O)n2C(C)C)n1 (as salt: sodium) [Example 95] | 213 to 215 °C (dec.)
CC(C)n1c(CC[C@@H](O)C[C@@H](O)CC(=O)[O-])c(-c2ccc(F)cc2)c(-c2ccc(F)cc2)c1C(=O)NCc1cccc(S(=O)(=O)N(C)C)c1.[Na+] [Example 71, (3R,5R)-7-[5-(3-dimethylsulfamoyl-benzylcarbamoyl)-3,4-bis-(4-fluoro-phenyl)-1-isopropyl-1H-pyrrol-2-yl]-3,5-dihydroxy-heptanoate Sodium Salt] | 172 to 175 °C

From patent publication US20050154042A1, “N-alkyl pyrroles as HMG-CoA reductase inhibitors” (priority 2003, published 2005)
